Laboratory results from patent publication US10028931B2, “Synergistic compositions for treating microbial infections” (UNIVERSITY OF ROCHESTER, priority 2014, dated 2018).
≈ marks a conversion by molar mass, not a printed value. Read-outs that look alike come from different tables or passages of the source.

Key:
RnpA = molecular target: T1, RnpA (Staphylococcus aureus, UniProt P0A0H5); experiment: RnpA mRNA degradation activity assay; type: biochemical
T1 sequence (P0A0H5 1-117): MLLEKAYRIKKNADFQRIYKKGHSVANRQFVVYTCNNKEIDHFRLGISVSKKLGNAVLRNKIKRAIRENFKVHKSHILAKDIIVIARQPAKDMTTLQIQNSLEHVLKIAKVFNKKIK
Experimental: The RNase P inhibitors described herein were tested for activity toward RnpA mRNA degradation activity. Either 1 μg of total S. aureus RNA or 1 pmol of in vitro synthesized spa mRNA was incubated with 20 pmol RnpA at 37° C. for 15 to 30 min in a reaction buffer (50 mM Tris-HCl pH 8.0, 2 mM NaCl, 2 mM MgCl2) in the absence or presence of the indicated compound. Reactions were stopped by adding an equal volume of 2×RNA loading dye (95% formamide, 0.025% SDS, 0.025% bromophenol blue, 0.025% xylene cyanol FF, 0.5 mM EDTA), run on a denaturing 1.0% agarose-0.66 M formaldehyde gel and stained with ethidium bromide. RNA substrates and corresponding degradation products were visualized using a FluorChem 5500 system (Alpha Innotech; San Leandro, Calif.). The inhibitory effects of the test compounds were measured using Image J densitometry software (National Institutes of Health; Bethesda, Md.) to quantify the signal intensity of the RNA band(s) in the negative control (RNA alone), positive control (RnpA+RNA+DMSO), and experimental samples (RnpA+RNA+test compound). The percent enzyme inhibition of test compounds was calculated using the following equation: Percent inhibition=[(experimental signal-positive control)/(negative control signal-positive control signal)]*100.

[1] = molecular target: T2, S. aureus RNase P (RnpA+rnpB) (Staphylococcus aureus, UniProt P0A0H5); experiment: RNase P activity assay (precursor tRNA processing); type: biochemical; conditions: gel densitometry
T2 sequence (P0A0H5 1-117): T1 sequence (P0A0H5 1-117)
Experimental: The RNase P inhibitors described herein were tested for activity toward RNase P. S. aureus RNase P activity assays were performed in low salt buffer (50 mM Tris-HCl pH 8.0, 5 mM MgCl2) or in high salt buffer (50 mM Tris-HCl pH 8.0, 100 mM MgCl2, 800 mM NH4Cl). For all reactions, ptRNATyr, tRNATyr, or rnpB RNA species were first denatured by heating to 95° C. for 3 minutes, and then slowly cooling the mixtures to room temperature. RNase P was reconstituted by mixing an equal molar ratio of RnpB and RnpA for 15 min at 37° C. Precursor tRNA processing reactions (20 μL) were performed by mixing 1.25 pmol RNase P (RnpA+rnpB), RnpA, or rnpB with an equal volume of 2× low salt buffer or 2× high salt buffer and 10 pmol ptRNATyr. Mixtures were incubated for 15 min at 37° C. Reactions were stopped by adding 20 μL 2×RNA loading dye (95% formamide, 0.025% SDS, 0.025% bromophenol blue, 0.025% xylene cyanol FF, 0.5 mM EDTA), and 30 μL of each sample was electrophoresed in a 7 M urea/8% polyacrylamide gel and was then stained with ethidium bromide (0.5 μg/ml). Where indicated, reactions were repeated in the presence of the indicated amount of putative RnpA inhibitors or dimethyl sulfoxide (DMSO). A FluorChem 5500 imaging system was used to visualize the RNA, and the relative abundance of the mature tRNATyr band in the positive control (RNase P+DMSO) or in samples containing test compounds was measured using Image J densitometry software (NIH). The percent RNase P activity was then calculated using the following calculation: (test compound tRNATyr signal/positive control tRNATyr signal)*100.

[2] = test system: Staphylococcus aureus strain UAMS-1; experiment: Antimicrobial susceptibility testing (MIC, broth microdilution); type: cell-based; conditions: S. aureus UAMS-1, Mueller Hinton broth, 37° C.
Experimental: The RNase P inhibitors described herein were tested for antimicrobial activity toward Staphylococcus aureus strain UAMS-1. Individual wells of a 96-well microtiter plate were inoculated with ˜1×10^5 colony-forming units (CFU) of the indicated organism, containing two-fold increasing concentrations (from 0 to 256 μg mL^−1) of the indicated antibiotic or putative RnpA inhibitor, and incubated at 37° C. for 18 hours in Mueller Hinton broth. The MIC was defined as the lowest concentration of antibiotic in which there was no visible bacterial growth in the wells. Minimum bactericidal concentration testing was performed by enumerating the bacterial cells in each of the wells containing treatments at and above the MIC.

S. aureus strain UAMS-1 = experiment: Fractional Inhibitory Concentration testing with mupirocin; type: cell-based; conditions: combined with mupirocin, S. aureus UAMS-1, Mueller Hinton broth, 18 hours; synergistic FIC≤0.5
Experimental: The RNase P inhibitors described herein were tested for Fractional Inhibitory Concentration (FIC) in the presence of mupirocin. FIC testing was performed to determine the combined effects of mupirocin and the RnpA inhibitors as described herein. Individual wells of a 96-well microtiter plate were inoculated with 1×10^5 CFU of S. aureus strain UAMS-1 in a Mueller Hinton broth. Each row of the plate contained increasing concentrations of RNPA1000 or RNPA2000 (two-fold increments; 0, 0.004, 0.008, 0.016, 0.03, 0.06, 0.125, 0.25, 0.5, 1, 2, or 4×MIC), whereas each column contained increasing concentrations of the indicated antibiotic (two-fold increments; 0, 0.06, 0.125, 0.25, 0.5, 1, 2, or 4×MIC). Plates were incubated for 18 hours at 37° C., and growth was detected by the unaided eye. The FIC was determined using the following formula: (MIC of Drug A in Combination/MIC of Drug A Alone)+(MIC of Drug B in Combination/MIC of Drug B Alone)=FIC. A synergistic interaction was defined as an FIC value≤0.5, no interaction as an FIC of 0.5-4, or an antagonistic interaction FIC>4.

[3] = RnpA mRNA degradation, gel densitometry, read-out: RnpA IC50
[4] = ptRNATyr processing, read-out: RNase P IC50
[5] = Staphylococcus aureus, UAMS1, 18 h, read-out: MIC

Row | SMILES | IC50 (RnpA; [3]) [µM] | IC50 [1, 4] [µM] | MIC [2, 5] [µg/mL] | FIC with Mupirocin (S. aureus strain UAMS-1) | IC50 (RnpA) [µM] | MIC ([2]; 18 hours) [µg/mL] | IC50 ([1]; RNase P IC50, ptRNATyr processing) [µM]
1 | CC(C)c1ccc(OCC(=O)NNC(=S)NC(=O)c2cccs2)cc1 [MC-190029] | > 500 | 380 | 128 (≈ 339 µM) | 0.5 | – | – | –
2 | CC(C)c1ccc(OCC(=O)NNC(=S)NC(=O)c2ccsc2)cc1 [MC-190030] | – | 395 | 64 (≈ 170 µM) | 0.375 | > 500 | – | –
3 | CC(C)c1ccc(OCC(=O)NNC(=S)NC(=O)c2cc3ccccc3o2)cc1 [MC-190031] | 60 | 1 | 32 (≈ 77.8 µM) | 0.25 | – | – | –
4 | COc1ccccc1C(=O)NNC(=O)COc1ccc(C(C)C)cc1 [MC-190032] | > 500 | 75 | > 128 | 0.75 | – | – | –
5 | COc1ccccc1C(=O)NC(=S)NNC(=O)COc1ccc(C(C)C)cc1 [MC-190033] | 250 | > 500 | 128 (≈ 319 µM) | 0.3125 | – | – | –
6 | CC(C)c1ccc(OCC(=O)NNC(=S)NC(=O)c2ccno2)cc1 [MC-190037] | – | > 500 | 32 (≈ 88.3 µM) | 0.625 | – | – | –
7 | Cc1ccoc1C(=O)NNC(=O)COc1ccc(C(C)C)cc1 [MC-190040] | 480 | 230 | > 256 | 0.625 | – | – | –
8 | Cc1ccc(C(=O)NC(=S)NNC(=O)COc2ccc(C(C)C)cc2)o1 [MC-190044] | 30 | 105 | 32 (≈ 85.2 µM) | 0.49 | – | – | –
9 | CC(C)c1ccc(OCC(=O)NNC(=S)NC(=O)/C=C/c2ccco2)cc1 [MC-190045] | 100 | 32 | 64 (≈ 165 µM) | 0.625 | – | – | –
10 | CC(C)c1ccc(OCC(=O)NNC(=S)NC(=O)c2ccc(Br)o2)cc1 [MC-190046] | 30 | 140 | 32 (≈ 72.7 µM) | 0.3125 | – | – | –
11 | CC(C)c1ccc(OCC(=O)NNC(=S)NC(=O)/C=C/c2cc3ccccc3o2)cc1 [MC-190047] | 30 | 26 | 64 (≈ 146 µM) | 0.625 | – | – | –
12 | CC(C)c1ccc(OCC(=O)NNC(=O)/C=C/c2cc3ccccc3o2)cc1 [MC-190048] | < 50 | < 50 | > 256 | 0.5625 | – | – | –
13 | CC(C)c1ccc(OCC(=O)NNC(=S)NC(=O)c2cccnc2)cc1 [MC-190049] | – | 160 | 64 (≈ 172 µM) | 1 | > 500 | – | –
14 | CC(C)c1ccc(OCC(=O)NNC(=S)NC(=O)c2nc3ccccc3[nH]2)cc1 [MC-190052] | 150 | 90 | 128 (≈ 311 µM) | 0.56 | – | – | –
15 | CC(C)c1ccc(OCC(=O)NNC(=S)NC(=O)c2cc3ccccc3n2C)cc1 [MC-190056] | 240 | – | 64 (≈ 151 µM) | 0.49 | – | – | –
16 | CC(C)c1ccc(OCC(=O)NNC(=S)NC(=O)c2cc3cc(F)ccc3[nH]2)cc1 [MC-190062] | – | – | 64 (≈ 149 µM) | 0.56 | – | – | –
17 | CCCOc1ccc(OCC(=O)NNC(=S)NC(=O)c2ccco2)cc1 [MC-190072] | – | – | 128 (≈ 339 µM) | 0.625 | – | – | –
18 | Cc1ccc(C(=O)NNC(=S)NC(=O)c2ccco2)cc1 [MC-190073] | – | – | – | 0.75 | – | 64 (≈ 211 µM) | –
19 | O=C(/C=C/c1ccccc1)NNC(=S)NC(=O)c1ccco1 [MC-190074] | – | – | 64 (≈ 203 µM) | 0.625 | – | – | –

Row | SMILES | IC50 (RnpA; [3]) [µM] | IC50 [1, 4] [µM] | MIC [2, 5] [µg/mL] | FIC with Mupirocin (S. aureus strain UAMS-1) | IC50 (RnpA) [µM] | MIC ([2]; 18 hours) [µg/mL] | IC50 ([1]; RNase P IC50, ptRNATyr processing) [µM]
20 | CC(C)c1ccc(OCC(=O)NNC(=S)NC(=O)c2ccc3ccccc3n2)cc1 [MC-190077] | – | – | > 128 | 0.53 | – | – | –
21 | CC(C)c1ccc(/C=C/C(=O)NNC(=S)NC(=O)c2ccco2)cc1 [MC-190078] | – | – | 64 (≈ 179 µM) | 0.625 | – | – | –
22 | O=C(COc1ccccc1)NNC(=S)NC(=O)c1ccco1 [MC-190079] | – | – | > 128 | 0.75 | – | – | –
23 | CC(C)c1ccc(OCC(=O)NNC(=S)NC(=O)c2cccc(-c3ccccc3)n2)cc1 [MC-190081] | – | – | > 128 | 0.56 | – | – | –
24 | Cc1cc(C)cc(OCC(=O)NNC(=S)NC(=O)C2CC2)c1 [ST5523339] | > 500 | – | 16 (≈ 49.8 µM) | 1 | – | – | –
25 | CC(C)c1ccc(OCC(=O)NNC(=S)NC(=O)c2ccco2)c(Br)c1 [ST5524693] | – | 350 | 8 (≈ 18.2 µM) | 0.49 | – | – | –
26 | Cc1ccc(OCc2ccc(C(=O)NNC(=S)NCC(C)C)o2)c(C)c1 [ST5607269] | 150 | > 500 | > 128 | – | – | – | –
27 | CCc1ccc(OCc2ccc(C(=O)NNC(=S)NCC(C)C)o2)cc1 [ST5607293] | > 500 | > 500 | > 128 | – | – | – | –
28 | COc1cccc(OC)c1C(=O)NC(=S)NNC(=O)c1ccco1 [ST5638707] | > 500 | > 500 | 128 (≈ 366 µM) | – | – | – | –
29 | Cc1ccccc1C(=O)NNC(=S)NC(=O)c1ccco1 [ST5638722] | > 500 | 430 | 64 (≈ 211 µM) | – | – | – | –
30 | O=C(NC(=S)NNC(=O)c1ccc(O)cc1O)c1ccco1 [ST5640720] | > 500 | > 500 | 16 (≈ 49.8 µM) | – | – | – | –
31 | O=C(NNC(=S)NC(=O)c1ccco1)c1cnccn1 [ST5641784] | > 500 | > 500 | 32 (≈ 110 µM) | – | – | – | –
32 | O=C(Cc1ccc(Cl)cc1)NNC(=S)NC(=O)c1ccco1 [ST5642600] | > 500 | > 500 | 16 (≈ 47.4 µM) | – | – | – | –
33 | Cc1ccc(C(=O)NNC(=S)NC(=O)c2ccco2)cc1 [ST5682777] | > 500 | 70 | – | – | – | 16 (≈ 52.7 µM) | –
34 | COc1ccccc1OCC(=O)NNC(=S)NC(=O)c1ccco1 [ST5682778] | > 500 | > 500 | > 128 | – | – | – | –
35 | O=C(COc1ccc(Cl)cc1Cl)NNC(=S)NC(=O)c1ccco1 [ST5682846] | > 500 | – | 4 (≈ 10.3 µM) | – | – | – | 80
36 | O=C(NC(=S)NNC(=O)c1ccccc1O)c1ccco1 [ST5703881] | > 500 | > 500 | – | – | – | 16 (≈ 52.4 µM) | –
37 | O=C(NC(=S)NNC(=O)c1ccco1)c1ccc(F)c(F)c1 [ST5704832] | > 500 | > 500 | > 128 | – | – | – | –
